Test results from ChEMBL document CHEMBL4725408, “Antibacterial Spiropyrimidinetriones with N-Linked Azole Substituents on a Benzisoxazole Scaffold Targeting DNA Gyrase” (J Med Chem, 2020).
Converted amounts (≈) assume the structure as drawn. The source made the active and inactive calls. The rule behind the calls is not given here.

Experiments:
[1] = Solubility of the compound by high throughput solubility assay; assay type: physicochemical
Haemophilus influenzae = test: Antibacterial activity against Haemophilus influenzae ARC737 by broth microdilution method; assay type: functional
Streptococcus pyogenes = test: Antibacterial activity against Streptococcus pyogenes ARC838 by broth microdilution method; assay type: functional
L5178Y = test: Genotoxicity in mouse L5178Y cells using DAPI staining by microscopy based micronucleation assay; assay type: toxicity, cell-based
Staphylococcus aureus [2] = test: Antibacterial activity against methicillin/quinolone-resistant Staphylococcus aureus ARC517 by broth microdilution method; assay type: functional
Staphylococcus aureus [3] = test: Antibacterial activity against methicillin sensitive Staphylococcus aureus ARC516 in presence of human serum by broth microdilution method; assay type: functional
Staphylococcus aureus [4] = test: Antibacterial activity against methicillin sensitive Staphylococcus aureus ARC516 by broth microdilution method; assay type: functional
[5] = Plasma clearance in Wistar Han rat at 3 mg/kg, iv administered as 15 mins infusion by LC-MS/MS analysis; assay type: ADME, organism-based; set-up: unit not given here; conditions: in vivo, 0.25 h
Streptococcus pneumoniae = test: Antibacterial activity against Streptococcus pneumoniae ARC548 by broth microdilution method; assay type: functional
Escherichia coli = test: Antibacterial activity against Escherichia coli ARC523 by broth microdilution method; assay type: functional
[6] = Unbound plasma clearance in Wistar Han rat at 3 mg/kg, iv administered as 15 mins infusion by LC-MS/MS analysis; assay type: ADME, organism-based; set-up: unit not given here; conditions: in vivo, 0.25 h
[7] = n-octanol/phosphate buffer partition coefficient, log D of the compound at pH 7.4 measured after 1 hr by UV-LC/MS based shake flask method; assay type: physicochemical
[8] = Inhibition of recombinant Escherichia coli DNA gyrase AB expressed in Escherichia coli BL21 (DE3) using relaxed pJT519 DNA as substrate preincubated for 20 mins followed by 5'-BODIPY-TMR-TTCTTCTTCT addition and measured after 1 hr by fluorescence anisotropy
[9] = Half life in Wistar Han rat at 3 mg/kg, iv administered as 15 mins infusion by LC-MS/MS analysis; assay type: ADME, organism-based; conditions: in vivo
[10] = Oral bioavailability in CD-1 mouse at 10 mg/kg by LC-MS/MS analysis; assay type: ADME, organism-based; conditions: in vivo
[11] = Half life in CD-1 mouse at 3 mg/kg, iv administered as 15 mins infusion by LC-MS/MS analysis; assay type: ADME, organism-based; conditions: in vivo
[12] = Plasma clearance in CD-1 mouse at 3 mg/kg, iv administered as 15 mins infusion by LC-MS/MS analysis; assay type: ADME, organism-based; conditions: in vivo, 0.25 h
[13] = Protein binding in mouse plasma assessed as unbound fraction at 10 uM measured after 16 hrs by LC-MS/MS based equilibrium dialysis method; assay type: ADME, cell-free
[14] = Volume of distribution at steady state in CD-1 mouse at 3 mg/kg, iv administered as 15 mins infusion by LC-MS/MS analysis; assay type: ADME, organism-based; conditions: in vivo, read-out: Vdss
Staphylococcus aureus [15] = test: Antibacterial activity against methicillin sensitive Staphylococcus aureus ARC516 infected in CD-1 mouse neutropenic thigh infection model assessed as log reduction in colony forming unit at 150 mg/kg, ip measured after 24 hrs relative to initial treatment control; assay type: functional; conditions: dose mg/kg 25-150
Staphylococcus aureus [16] = test: Antibacterial activity against methicillin sensitive Staphylococcus aureus ARC516 infected in CD-1 mouse neutropenic thigh infection model assessed as log reduction in colony forming unit at 150 mg/kg, ip measured after 24 hrs relative to untreated control; assay type: functional
[17] = Protein binding in rat plasma assessed as unbound fraction at 10 uM measured after 16 hrs by LC-MS/MS based equilibrium dialysis method; assay type: ADME, cell-free
[18] = Volume of distribution at steady state in Wistar Han rat at 3 mg/kg, iv administered as 15 mins infusion by LC-MS/MS analysis; assay type: ADME, organism-based; conditions: in vivo, read-out: Vdss
Staphylococcus aureus [19] = test: Antibacterial activity against methicillin sensitive Staphylococcus aureus ARC516 infected in CD-1 mouse neutropenic thigh infection model assessed as reduction in colony forming unit at 25 to 50 mg/kg, ip measured after 24 hrs; assay type: functional, organism-based
[20] = Oral bioavailability in Wistar Han rat at 10 mg/kg by LC-MS/MS analysis; assay type: ADME, organism-based; conditions: in vivo
[21] = Unbound plasma clearance in CD-1 mouse at 3 mg/kg, iv administered as 15 mins infusion by LC-MS/MS analysis; assay type: ADME, organism-based; conditions: in vivo, 0.25 h
[22] = Protein binding in human plasma assessed as unbound fraction at 10 uM measured after 16 hrs by LC-MS/MS based equilibrium dialysis method; assay type: ADME, cell-free
Staphylococcus aureus [23] = test: Antibacterial activity against methicillin sensitive Staphylococcus aureus ARC516 infected in CD-1 mouse neutropenic thigh infection model assessed as log reduction in colony forming unit at 25 to 150 mg/kg, ip measured after 12 hrs relative to initial treatment control; assay type: functional; conditions: dose mg/kg 25-150
Staphylococcus aureus [24] = test: Antibacterial activity against methicillin sensitive Staphylococcus aureus ARC516 infected in CD-1 mouse neutropenic thigh infection model assessed as reduction in colony forming unit at 20 mg/kg, ip bid in presence of ABT; assay type: functional, organism-based
Staphylococcus aureus [25] = test: Antibacterial activity against methicillin sensitive Staphylococcus aureus ARC516 infected in CD-1 mouse neutropenic thigh infection model assessed as log reduction in colony forming unit at 100 mg/kg, ip bid in presence of ABT relative to initial treatment control; assay type: functional
[26] = Ratio of MIC for antibacterial activity against methicillin/quinolone-resistant Staphylococcus aureus ARC517 to protein binding in human plasma assessed as unbound fraction

Structure (SMILES)	solubility [1] [µM]	MIC (Haemophilus influenzae) [µM]	MIC (Streptococcus pyogenes) [µM]	NOAEL (L5178Y) [µM]	MIC (Staphylococcus aureus [2]) [µM]	MIC (Staphylococcus aureus [3]) [µM]	MIC (Staphylococcus aureus [4]) [µM]	CL [5]	MIC (Streptococcus pneumoniae) [µM]	MIC (Escherichia coli) [µM]	CL free [6]	logD at 1 h [7]	IC50 [8] [µM]	half-life [9] [h]	bioavailability [10] [%]	half-life [11] [h]	CL [12] [mL/h/kg]	fraction unbound at 16 h, 10 µM [13]	Vd [14] [L/kg]	fraction unbound at 16 h, 10 µM [22]	also measured
C[C@@H]1CN2c3c(cc4c(-n5cnc(C#N)n5)noc4c3F)CC3(C(=O)NC(=O)NC3=O)[C@H]2[C@H](C)O1	5 (≈ 2.4 µg/mL)	3.1 (≈ 1.49 µg/mL)	0.8 (≈ 0.384 µg/mL)	< 6	0.39 (≈ 0.187 µg/mL)	3.1	0.2 (≈ 0.0961 µg/mL)	200	1.6 (≈ 0.769 µg/mL)	100 (≈ 48 µg/mL)	2600	2	1.3	–	–	–	–	–	–	–	–
COc1ncnn1-c1noc2c(F)c3c(cc12)CC1(C(=O)NC(=O)NC1=O)[C@H]1[C@H](C)O[C@H](C)CN31	900 (≈ 437 µg/mL)	0.78 (≈ 0.379 µg/mL)	0.39 (≈ 0.189 µg/mL)	25	0.39 (≈ 0.189 µg/mL)	0.39	0.098 (≈ 0.0476 µg/mL)	13	0.39 (≈ 0.189 µg/mL)	30 (≈ 14.6 µg/mL)	93	1.7	0.32	1.69	62	2.52	0.66	0.2	2.4	0.14	log(activity) (Staphylococcus aureus [15]): 2; log(activity) (Staphylococcus aureus [16]): 4.5; fraction unbound at 16 h, 10 µM [17]: 0.13; Vd [18]: 1.9 L/kg; Activity (Staphylococcus aureus [19]): inactive; bioavailability [20]: 48%; CL free [21]: 3.3 mL/h/kg; log(activity) (Staphylococcus aureus [23]): 1
CCNc1ncnn1-c1noc2c(F)c3c(cc12)CC1(C(=O)NC(=O)NC1=O)[C@H]1[C@H](C)O[C@H](C)CN31	3 (≈ 1.5 µg/mL)	0.39 (≈ 0.194 µg/mL)	< 0.2	–	0.098 (≈ 0.0489 µg/mL)	< 0.2	0.049 (≈ 0.0244 µg/mL)	11	< 0.2	12 (≈ 5.98 µg/mL)	130	2.2	0.097	–	–	–	–	–	–	0.037	–
C[C@@H]1CN2c3c(cc4c(-n5ncnc5CN(C)C)noc4c3F)CC3(C(=O)NC(=O)NC3=O)[C@H]2[C@H](C)O1	> 1000	1.6 (≈ 0.82 µg/mL)	1.6 (≈ 0.82 µg/mL)	–	0.78 (≈ 0.4 µg/mL)	0.39	< 0.2	23	1.6 (≈ 0.82 µg/mL)	50 (≈ 25.6 µg/mL)	110	0.93	0.59	–	–	–	–	–	–	0.18	–
C[C@@H]1CN2c3c(cc4c(N5C(=O)OC[C@@H]5C)noc4c3F)CC3(C(=O)NC(=O)NC3=O)[C@H]2[C@H](C)O1 [ZOLIFLODACIN]	–	–	–	> 400	0.78 (≈ 0.38 µg/mL)	0.39	0.2 (≈ 0.0975 µg/mL)	–	–	6.2 (≈ 3.02 µg/mL)	–	1.7	0.17	0.79	43.5	0.61	3.42	0.17	3	0.18	Activity (Staphylococcus aureus [24]): Active; log(activity) (Staphylococcus aureus [25]): 1.8; fraction unbound at 16 h, 10 µM [17]: 0.13; Vd [18]: 1.5 L/kg; bioavailability [20]: 31%; CL free [21]: 20.1 mL/h/kg; Ratio [26]: 4.3
C[C@@H]1CN2c3c(cc4c(-n5cc(C#N)cn5)noc4c3F)CC3(C(=O)NC(=O)NC3=O)[C@H]2[C@H](C)O1	10 (≈ 4.79 µg/mL)	–	–	–	0.2 (≈ 0.0959 µg/mL)	0.39	< 0.2	–	–	25 (≈ 12 µg/mL)	–	2.4	0.4	–	–	–	–	–	–	0.044	Ratio [26]: 4.5
